Data taken from ChEMBL document CHEMBL1201862, “PubChem BioAssay data set” (2004).
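Results reflect a 48-hour exposure of cells in 96-well plates to compound at five concentrations. At the GI50, growth is halved.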 The source made the active and inactive calls. Rule as the data show it: active = GI50 up to about 1.1 µM and inactive = higher.

Tests used:
Assay in all cases: NCI anticancer screen, dose series, 48 h
CCRF-CEM = test system: CCRF-CEM
DLD-1 = test system: DLD-1
RPMI-8226 = test system: RPMI-8226
LOX IMVI = test system: LOX IMVI
SK-OV-3 = test system: SK-OV-3
CAKI-1 = test system: CAKI-1
Malme-3M = test system: Malme-3M
A498 = test system: A498
UACC-257 = test system: UACC-257
XF498 = test system: XF498
IGROV-1 = test system: IGROV-1
HOP-18 = test system: HOP-18
SNB-78 = test system: SNB-78
DMS-273 = test system: DMS-273
DMS-114 = test system: DMS-114
MCF7 = test system: MCF7
NCI/ADR-RES = test system: NCI/ADR-RES

Row | Structure (SMILES) | GI50 (CCRF-CEM) | GI50 (DLD-1) | GI50 (RPMI-8226) | GI50 (LOX IMVI) | GI50 (SK-OV-3) | GI50 (CAKI-1) | GI50 (Malme-3M) | GI50 (A498) | GI50 (UACC-257) | GI50 (XF498) | GI50 (IGROV-1) | GI50 (HOP-18) | GI50 (SNB-78) | GI50 (DMS-273) | GI50 (DMS-114) | GI50 (MCF7) | GI50 (NCI/ADR-RES)
1 | COC1O[C@H]2CCN(C(=O)OCc3ccccc3)[C@H]2[C@H]1OCc1ccccc1 (stereo partly specified) | 34.9 µM (inactive) | 48.3 µM (inactive) | 41 µM (inactive) | 56.6 µM (inactive) | 23.6 µM (inactive) | 40.3 µM (inactive) | 45.6 µM (inactive) | > 100 µM (inactive) | 43.8 µM (inactive) | 35.2 µM (inactive) | 49.5 µM (inactive) | > 100 µM (inactive) | 54.8 µM (inactive) | 39.1 µM (inactive) | 29.6 µM (inactive) | – | –
2 | c1ccc2c(c1)nc1n2CSC1 | > 100 µM (inactive) | > 100 µM (inactive) | > 100 µM (inactive) | > 100 µM (inactive) | > 100 µM (inactive) | > 100 µM (inactive) | > 100 µM (inactive) | > 100 µM (inactive) | – | > 100 µM (inactive) | > 100 µM (inactive) | > 100 µM (inactive) | > 100 µM (inactive) | > 100 µM (inactive) | > 100 µM (inactive) | – | –
3 | O=C(CC1(O)C(=O)Nc2c(Cl)cc(Cl)cc21)c1ccco1 (stereo unspecified) | 24.3 µM (inactive) | 49.3 µM (inactive) | 23.1 µM (inactive) | 33.1 µM (inactive) | > 100 µM (inactive) | 45 µM (inactive) | > 100 µM (inactive) | – | > 100 µM (inactive) | 25.1 µM (inactive) | – | 55.7 µM (inactive) | 26.9 µM (inactive) | 38.8 µM (inactive) | 22.8 µM (inactive) | – | –
4 | COc1cc(C2C(C(=O)Nc3ccccc3C)=C(C)NC(C)=C2C(=O)Nc2ccccc2C)ccc1O | 71.8 µM (inactive) | > 100 µM (inactive) | 84.7 µM (inactive) | – | > 100 µM (inactive) | > 100 µM (inactive) | > 100 µM (inactive) | > 100 µM (inactive) | > 100 µM (inactive) | 87.5 µM (inactive) | > 100 µM (inactive) | > 100 µM (inactive) | > 100 µM (inactive) | > 100 µM (inactive) | > 100 µM (inactive) | – | –
5 | C/C(=N/NC(=O)c1ccccc1S(N)(=O)=O)C(CN1CCCCC1)C(C1=C(O)C2C=CC=CC2OC1=O)c1ccccc1 (stereo unspecified) | 21.9 µM (inactive) | > 100 µM (inactive) | 25.5 µM (inactive) | 74.5 µM (inactive) | > 100 µM (inactive) | > 100 µM (inactive) | 62.7 µM (inactive) | > 100 µM (inactive) | 95.7 µM (inactive) | > 100 µM (inactive) | > 100 µM (inactive) | 87.1 µM (inactive) | > 100 µM (inactive) | – | – | – | –
6 | CC1(O)C=CC(=O)C=C1 | 22.2 µM (inactive) | 12.4 µM (inactive) | 30.1 µM (inactive) | 20.4 µM (inactive) | > 100 µM (inactive) | 30.8 µM (inactive) | 20.3 µM (inactive) | 37.6 µM (inactive) | 17.7 µM (inactive) | 29.1 µM (inactive) | 26.8 µM (inactive) | 58.2 µM (inactive) | 34.8 µM (inactive) | 18.3 µM (inactive) | 16.4 µM (inactive) | – | –
7 | COc1ccc(/C(Cl)=C(\C=O)c2ccc(OC)c(OC)c2)cc1 | 21.6 µM (inactive) | – | 16.5 µM (inactive) | 23.3 µM (inactive) | 62.4 µM (inactive) | 74.5 µM (inactive) | 17.4 µM (inactive) | 35.9 µM (inactive) | – | 22.2 µM (inactive) | 46.1 µM (inactive) | 49.9 µM (inactive) | 29 µM (inactive) | – | 25.9 µM (inactive) | – | –
8 | Nc1cc(O)c2cc(/N=N/c3ccc(/N=N/c4ccc(/N=N/c5ccc6cc(S(=O)(=O)O)cc(S(=O)(=O)O)c6c5)c5ccccc45)c4cc(S(=O)(=O)O)ccc34)c(S(=O)(=O)O)cc2c1 | 61.5 µM (inactive) | > 100 µM (inactive) | > 100 µM (inactive) | > 100 µM (inactive) | > 100 µM (inactive) | – | > 100 µM (inactive) | > 100 µM (inactive) | > 100 µM (inactive) | > 100 µM (inactive) | > 100 µM (inactive) | > 100 µM (inactive) | > 100 µM (inactive) | 97.1 µM (inactive) | – | > 100 µM (inactive) | > 100 µM (inactive)
9 | N#C/C(=C/c1ccco1)C(=O)c1ccccc1 | > 100 µM (inactive) | > 100 µM (inactive) | > 100 µM (inactive) | > 100 µM (inactive) | > 100 µM (inactive) | > 100 µM (inactive) | > 100 µM (inactive) | > 100 µM (inactive) | > 100 µM (inactive) | > 100 µM (inactive) | > 100 µM (inactive) | > 100 µM (inactive) | > 100 µM (inactive) | – | > 100 µM (inactive) | – | –
10 | COC(=O)C1=C(O)c2cc3c(cc2[C@H](c2cc(OC)c(OC)c(OC)c2)C1C(=O)OC)OCO3 (stereo partly specified) | > 100 µM (inactive) | 67 µM (inactive) | > 100 µM (inactive) | > 100 µM (inactive) | 44.1 µM (inactive) | 25.2 µM (inactive) | 28.9 µM (inactive) | 76 µM (inactive) | 47.3 µM (inactive) | 25.1 µM (inactive) | 48.6 µM (inactive) | 29.2 µM (inactive) | 53.2 µM (inactive) | 65.2 µM (inactive) | 25 µM (inactive) | – | –
11 | CCCCCCCCCCCC(=O)C1=C(O)CCC(O)C1=O (stereo unspecified) | 8.18 µM (inactive) | 18.2 µM (inactive) | – | 11.3 µM (inactive) | 26.8 µM (inactive) | 23 µM (inactive) | 17 µM (inactive) | 16.2 µM (inactive) | 14.7 µM (inactive) | 10.7 µM (inactive) | 19.9 µM (inactive) | 25.5 µM (inactive) | 21.9 µM (inactive) | 7.29 µM (inactive) | 14.2 µM (inactive) | – | –
12 | O=C(NNc1ccc([N+](=O)[O-])cc1)C1OC(CO)C(O)C1O (stereo unspecified) | 43.7 µM (inactive) | 47.1 µM (inactive) | 30.5 µM (inactive) | > 100 µM (inactive) | > 100 µM (inactive) | > 100 µM (inactive) | > 100 µM (inactive) | > 100 µM (inactive) | > 100 µM (inactive) | > 100 µM (inactive) | > 100 µM (inactive) | > 100 µM (inactive) | > 100 µM (inactive) | > 100 µM (inactive) | > 100 µM (inactive) | – | –
13 | O=C(O)CCCCCCC[C@H]1S[C@H]1CCCCCCO | – | > 100 µM (inactive) | > 100 µM (inactive) | – | > 100 µM (inactive) | > 100 µM (inactive) | > 100 µM (inactive) | – | – | > 100 µM (inactive) | > 100 µM (inactive) | > 100 µM (inactive) | > 100 µM (inactive) | – | > 100 µM (inactive) | – | –
14 | O=C(CC1=NCCN1)c1ccccc1 | > 511 µM (inactive) | > 750 µM (inactive) | > 750 µM (inactive) | > 750 µM (inactive) | > 750 µM (inactive) | > 750 µM (inactive) | > 617 µM (inactive) | 62.8 µM (inactive) | > 750 µM (inactive) | > 750 µM (inactive) | > 750 µM (inactive) | > 649 µM (inactive) | > 750 µM (inactive) | > 750 µM (inactive) | > 750 µM (inactive) | > 750 µM (inactive) | > 750 µM (inactive)
15 | CS(=O)(=O)N/N=C/CN1C(=O)c2ccccc2C1=O | > 100 µM (inactive) | > 100 µM (inactive) | > 100 µM (inactive) | – | > 100 µM (inactive) | > 100 µM (inactive) | > 100 µM (inactive) | > 100 µM (inactive) | > 100 µM (inactive) | > 100 µM (inactive) | > 100 µM (inactive) | > 100 µM (inactive) | > 100 µM (inactive) | > 100 µM (inactive) | > 100 µM (inactive) | – | –
16 | COc1ccc(Br)c(CN2CCc3ccccc32)c1OS(=O)(=O)c1ccc(C)cc1 | 21.4 µM (inactive) | 15.3 µM (inactive) | 26.3 µM (inactive) | – | – | – | 45.2 µM (inactive) | – | 48.2 µM (inactive) | 12.4 µM (inactive) | – | > 100 µM (inactive) | 23.3 µM (inactive) | – | 18.3 µM (inactive) | – | –
17 | COc1cc(/C=C/C(=O)O)ccc1C(=O)OCc1ccccc1 | > 100 µM (inactive) | > 100 µM (inactive) | > 100 µM (inactive) | > 100 µM (inactive) | > 100 µM (inactive) | – | > 100 µM (inactive) | > 100 µM (inactive) | > 100 µM (inactive) | > 100 µM (inactive) | > 100 µM (inactive) | > 100 µM (inactive) | > 100 µM (inactive) | > 100 µM (inactive) | > 100 µM (inactive) | > 100 µM (inactive) | > 100 µM (inactive)
18 | CN(C)CCNC(=O)c1cccc2cc3cc(O)ccc3nc12 | 0.59 µM (active) | 1.42 µM (inactive) | 1.36 µM (inactive) | 0.857 µM (active) | 1.46 µM (inactive) | < 0.0499 µM (active) | 1.22 µM (inactive) | 0.782 µM (active) | 1.26 µM (inactive) | 0.916 µM (active) | 1.37 µM (inactive) | 1.32 µM (inactive) | 2.47 µM (inactive) | 0.662 µM (active) | 1.37 µM (inactive) | 0.473 µM (active) | 1.48 µM (inactive)
19 | COC(=O)C#CCC1CCCC1C1SCCS1 (stereo unspecified) | 29.2 µM (inactive) | 73.5 µM (inactive) | – | 50.2 µM (inactive) | > 100 µM (inactive) | > 100 µM (inactive) | > 100 µM (inactive) | > 100 µM (inactive) | 51.3 µM (inactive) | 41 µM (inactive) | > 100 µM (inactive) | > 100 µM (inactive) | 23.6 µM (inactive) | 30.4 µM (inactive) | > 100 µM (inactive) | – | –
